This is an account of results in patent US4746672A, “Oxides of 1,2,5-thiadiazoles, their use in pharmaceutical compositions” (ICI Americas Inc., priority 1982, dated 1988).

The assay concerns the target T1, histamine H-2 receptor (Oryctolagus cuniculus, UniProt G1TWL8).
T1 construct: The mixture of glands and cells is collected by centrifugation; from tissue; host or cells: dispersed gastric glands and cells (parietal cells) from gastric mucosa of New Zealand white rabbit
Kind of assay: aminopyrine test: inhibition of histamine-induced uptake of aminopyrine into the acid space of parietal cells. The conditions noted are these: rabbit gastric mucosa glands/cells; uptake stimulated by histamine 10^-5 M and ICI 63197 5×10^-7 M; read-out: concentration giving 50% inhibition of uptake of aminopyrine. In kind it is cell-based, New Zealand white rabbit. As to the method:
The aminopyrine test is carried out as follows:
Gastric mucosa from the New Zealand white rabbit is removed from the underlying muscle and washed in Buffer 1 which contains per liter: NaCl (8.007 g.), KCl (0.201 g.), Na2 HPO4 (0.113 g.), KH2 PO4 (0.204 g.), CaCl2.2H2 O (0.132 g.) MgCl2 (0.101 g.) and glucose (1 g.), adjusted to pH 7.4 with NaOH. The tissue is finely chopped, suspended in Buffer 1 and washed three times with Buffer 1. The tissue is then suspended in a dispersion medium of collagenase (Sigma Chemical Co., Type V; 100 mg.) and bovine serum albumin (Miles Laboratories Ltd., Fraction V; 100 mg.) in Buffer 1 (100 ml.) at 50 ml. per 10 g. net weight of tissue and incubated at 30° C. and pH 7.4 maintained by continuous monitoring, with stirring under an oxygen atmosphere. After 30 minutes the tissue is allowed to settle and the supernatant liquid is removed. Fresh dispersion medium (50 ml. per 10 g. wet weight of tissue) is added and incubation is continued with the tissue being largely dispersed into glands and whole cells after 40-60 minutes. Any remaining large pieces of tissue are removed by filtration through nylon mesh. […] The C^14 aminopyrine retained by the tissue is measured on a scintillation counter and the degree of inhibition of uptake by the test compound is calculated by reference to a control sample. […]

Structures can show the parent of a compound that is named as a salt.

T1 sequence (G1TWL8 1-367): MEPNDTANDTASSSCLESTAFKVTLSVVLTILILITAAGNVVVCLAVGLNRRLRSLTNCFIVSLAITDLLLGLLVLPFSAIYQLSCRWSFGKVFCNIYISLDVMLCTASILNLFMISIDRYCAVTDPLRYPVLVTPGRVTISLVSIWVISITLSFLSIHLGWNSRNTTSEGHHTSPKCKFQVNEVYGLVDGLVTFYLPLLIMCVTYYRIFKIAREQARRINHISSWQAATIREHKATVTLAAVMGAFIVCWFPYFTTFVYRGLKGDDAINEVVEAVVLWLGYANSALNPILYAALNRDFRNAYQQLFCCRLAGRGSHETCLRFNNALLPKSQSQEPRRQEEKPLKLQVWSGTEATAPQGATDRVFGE

For `NC(=NCC(F)(F)F)Nc1nc(CSCCNc2n[s+]([O-])nc2N)cs1` (stereo not shown) [Example 1, 3-amino-4-[2-(2-[2,2,2-trifluoroethyl]guanidino)thiazol-4-ylmethylthio]ethylamino-1,2,5-thiadiazole 1-oxide maleate], the IC50 was less than 3 µM.
